# Test results reported in patent US6664271B1, “Immunopotentiator agents” (Eli Lilly and Company, priority 1999, dated 2003).
# Marks after values point to notes of the source that are not given here.
# How the values were obtained:
# mononuclear leukocytes [1] = test: mammalian T-lymphocyte blastogenesis assay, canine (Example 75); type: cell-based
# Description: (§1) The compound prepared in Example 30, namely (S)-ethyl 1-(2-thiopheneacetyl)-3-peridinecarboxylate, was further evaluated for in vitro T-lymphocyte blastogenic activity from mammalian species other than avian.
# (§2) The mammalian blastogenesis assays were conducted with the same protocol as the vian assays with the following exceptions:
# (§3) 1. Only mononuclear leukocytes are used for the mammalian assay. The cells are obtained from whole blood by differential centrifugation using Histopague 1.077 (Sigma Chemical Company, St. Louis, Mo).
# (§4) 2. 0.5% Fetal Bovine Serum (FBS) [GIBCOBRL, Grand Island N.Y.] is added to RPMI 1640 medium. Exception: Non-human primate plasma is used instead of FBS at 5 ml/liter to RPMI 1640 medium.
# (§5) 3. 5×10^5 cells/well were used with the mammalian assays.
# mononuclear leukocytes [2] = test: mammalian T-lymphocyte blastogenesis assay, bovine (Example 75); type: cell-based
# Description: as §1, §2, §3, §4, §5
# E. coli 19B = test: bacterial clearance of E. coli from peripheral blood of neonatal chicks (Example 77); type: in vivo, chick; conditions: single subcutaneous injection of 25 μg, E. coli challenge, blood 14-18 hours post-challenge
# Description: The compounds of Example 15 ((S)-ethyl 1-benzoyl-3-piperidinecarboxylate), Example 29 (1-benzoyl-3-butyrylpiperidine), Example 30 ((S)-ethyl 1-(2-thiopheneacetyl)-3-piperidinecarboxylate) and Example 68 ((S)-ethyl 1-benzyl-3-piperidinecarboxylate 1-methiodide), respectively, were tested to determine whether a single subcutaneous injection enhanced the bacterial clearance of E. coli from the peripheral blood of neonatal chicks. Bacterial clearance is a measurement of cell-mediated immunity, specifically, phagocyte function, in animals. An approved Animal Care and Use Committee protocol governed the activity in this experiment.
# 1 ml syringes with 21 g 1″ needles (Becton Dickinson and Company Franklin Lakes, N.J. 07417-1884); 1 ml syringe with 25 g ⅝″ needles (Becton Dickinson and Company Franklin Lakes, N.J. 07417-1884); EMB agar plates (Difco Laboratories, Becton Dickinson Microbiology Systems, Sparks, Md. 21152); Culture tubes (14 ml polystyrene round bottom, Becton Dickinson Labware, Franklin Lakes, N.J. 07417-1886); Dulbecco's Phosphate Buffered Saline w/o Mg^++ or Ca^++ (Gibco BRL, Life Technologies Rockville, Md. 20850). Peterson x Hubbard male chicks (day of hatch from a commercial hatchery) were utilized
# 160 chicks were divided into 6 groups: Group 1=Controls (acetate-buffered saline vehicle); Group 2=Compound of Example 15 ((S)-ethyl 1-benzoyl-3-piperidinecarboxylate); Group 3=Compound of Example 29 (1-benzoyl-3-butyrylpiperidine); Group 4=Compound of Example 30 ((S)-ethyl 1-(2-thiopheneacetyl)-3-piperidinecarboxylate); Group 5=Compound of Example 68 ((S)-ethyl 1-benzyl-3-piperidinecarboxylate 1-methiodide); and Group 6=environmental controls. Groups 1-5 contained 3 replicates of 10 chicks each and Group 6 contained 1 replicate of 10 chicks.
# Day −2 Upon arrival, day of hatch chicks were randomized (10/group), and placed in a Petersime heated brooder battery unit (Petersime Incubator Company, Gettysburg, Ohio 45328). […] All chicks were given ad libitum access to a commercially available starter feed and water.
# Day 0 11:00 AM. Five to ten colonies of E. coli 19B were selected from a fresh overnight blood agar plate (TSA II with 5% sheep blood, Becton Dickinson Microbiology Systems Cockeysville, Md. 21030) and placed into 100 ml Brain Heart Infusion broth (Difco Laboratories, Becton Dickinson Microbiology Systems Sparks, Md. 21152) in a flask. […]
# Day 5 EMB plates were removed from the incubator and bacterial colonies were counted and recorded to calculate CFU/ml/chick.
# Data was transformed to logio values, and analysis of variance was used to determine significant differences between the treatment groups and controls. Data was expressed as the percentage of enhancedbacterial clearance compared to E. coli-challenged controls. […]
structure (smiles),measurement,setting,value
"CCOC(=O)[C@H]1CCCN(C(=O)Cc2cccs2)C1 [Example 30, (S)-Ethyl 1-(2-Thiopheneacetyl)-3-piperidinecarboxylate]",MSC,mononuclear leukocytes [1],1 μg μg/ml
same,MTC,mononuclear leukocytes [1],100 µg/mL
same,MSC,mononuclear leukocytes [2],10 μg μg/ml
same,MTC,mononuclear leukocytes [2],1 mg/mL
same,% Enhanced Clearance Compared to Controls,E. coli 19B,61* %
